Three molecules from US10022328B2, “Dialkyl sulfosuccinate compositions, method of making, and method of use” (CYTEC INDUSTRIES INC., priority 2015, dated 2018) can be followed below.

This data set is described as follows: Contact angle of excipient solution in 0.1 M HCl with API pellet (sessile drop). As to conditions: 0.1% excipient in 0.1 M HCl, 10-μL drops on pressed API pellet. Format: physicochemical. An excerpt:
A factor which contributes to the bioavailability of active pharmaceutical ingredients (API's) is the wetting of the API by an aqueous solution at a physiological pH. Wetting can affect dissolution rates of the API in the aqueous solution. Wetting can be assessed by measuring the contact angle between an aqueous solution and an API. In these examples, the sessile drop method was used to determine contact angles. Pellets of API were produced using an X-press 3630 with a 35-mm pressing die. The API was pressed into a 35-mm diameter aluminum pan using the standard 30-ton cycle in order to produce a flat surface. Drops (10-μL) of a 0.1% test solution of an excipient were used. The test solution was 0.1 M HCl, to simulate physiological conditions in the human stomach.
Take “Polyoxyethylene (20) sorbitan monolaurate [TWEEN ™ 20]”: the “Contact Angle with Fenofibrate” value is given as 58 °, the “Contact Angle with Glipizide” value is 42 °, the “Contact Angle with Ibuprofen” value is recorded as 45 ° and the “Contact Angle with Naproxen” value came to 48 °. Besides, the “Contact Angle with Ritonavir” value worked out at 40 °.
On the same counts, the results for “Polyoxyethylene (20) sorbitan monooleate [TWEEN ™ 80]” are 70 °, 55 °, 68 °, 52 ° and 51 °.
On the same counts, the results for `CCCCCCCCCCCCOS(=O)(=O)[O-].[Na+]` [SLS, Sodium lauryl sulfate] are 47 °, 43 °, 54 °, 34 ° and 57 °.
